Earlier results, collected in patent publication US8715728B2, “Extended release pellet formulation containing pramipexole or a pharmaceutically acceptable salt thereof” (Boehringer Ingelheim International GmbH, priority 2004, dated 2014).
Where a name gives a salt, the structure may show the parent alone.

Assays:
[1] = not given; remark: listed apart in the source
[2] = in vivo

solubility in buffer media (between pH 2 and pH 7.4) | Water solubility (water) | stability in solution ([1]; in solution, light) | stability in the solid state ([1]; solid state) | kinetics [2] | SMILES
above 10 mg/ml | more than 20 mg/mL | – | – | – | CCCN[C@H]1CCc2nc(N)sc2C1 [Pramipexole dihydrochloride monohydrate, pramipexole dihydrochloride monohydrate]
– | – | light sensitive | very stable | linear kinetics | CCCN[C@H]1CCc2nc(N)sc2C1 [Pramipexole, (S)-2-amino-4,5,6,7-tetrahydro-6-(propylamino)benzothiazole]
